Active and inactive are the calls of the source.
Experiments:
[1] = biological target: T1, Short transient receptor potential channel 4 (Mus musculus, UniProt Q9QUQ5); experiment: mouse TRPC4 channel inhibitors, dose response, cell-based, HEK293 TRPC4/mu-opioid, Fluo-4 calcium (AID 434942); format: functional;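 further: potency of inhibitors blocking the TRPC4 calcium response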
T1 sequence (Q9QUQ5 whole entry): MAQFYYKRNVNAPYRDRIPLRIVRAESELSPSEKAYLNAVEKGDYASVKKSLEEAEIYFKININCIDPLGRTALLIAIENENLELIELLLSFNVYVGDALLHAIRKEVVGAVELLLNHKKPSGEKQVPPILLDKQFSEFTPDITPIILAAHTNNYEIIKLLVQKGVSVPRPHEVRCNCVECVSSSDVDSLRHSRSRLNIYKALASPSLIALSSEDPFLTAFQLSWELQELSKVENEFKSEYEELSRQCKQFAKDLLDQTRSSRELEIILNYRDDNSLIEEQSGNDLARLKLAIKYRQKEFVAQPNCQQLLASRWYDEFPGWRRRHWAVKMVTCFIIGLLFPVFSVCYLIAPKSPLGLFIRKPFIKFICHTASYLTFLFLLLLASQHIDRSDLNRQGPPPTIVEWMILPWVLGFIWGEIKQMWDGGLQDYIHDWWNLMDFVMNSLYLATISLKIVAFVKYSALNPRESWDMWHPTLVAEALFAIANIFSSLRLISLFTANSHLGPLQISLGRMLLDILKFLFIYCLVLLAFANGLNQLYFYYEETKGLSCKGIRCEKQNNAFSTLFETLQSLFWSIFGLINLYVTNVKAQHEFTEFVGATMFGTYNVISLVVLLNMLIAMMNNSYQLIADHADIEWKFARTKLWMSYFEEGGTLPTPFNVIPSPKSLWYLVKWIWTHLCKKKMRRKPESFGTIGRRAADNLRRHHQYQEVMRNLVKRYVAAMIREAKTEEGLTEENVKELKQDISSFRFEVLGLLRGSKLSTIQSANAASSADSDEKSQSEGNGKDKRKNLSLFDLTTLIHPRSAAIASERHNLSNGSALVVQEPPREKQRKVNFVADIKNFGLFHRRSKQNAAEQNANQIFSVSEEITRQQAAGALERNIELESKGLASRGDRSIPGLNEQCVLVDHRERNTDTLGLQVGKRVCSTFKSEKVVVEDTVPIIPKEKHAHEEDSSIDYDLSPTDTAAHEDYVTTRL

[2] = HEp-2 cell cytotoxicity, dose response, cytotoxicity control for RSV inhibitor project, HTS (AID 2410); format: functional; details: human respiratory syncytial virus
[3] = biological target: Nucleotide-binding oligomerization domain-containing protein 2 (Homo sapiens, UniProt Q9HC29); experiment: NOD2 signaling inhibitors, cell-based, luminescence, uHTS, HEK293 (AID 1566); format: functional
Chain of Nucleotide-binding oligomerization domain-containing protein 2 (Q9HC29 whole entry, the tested form may be a part): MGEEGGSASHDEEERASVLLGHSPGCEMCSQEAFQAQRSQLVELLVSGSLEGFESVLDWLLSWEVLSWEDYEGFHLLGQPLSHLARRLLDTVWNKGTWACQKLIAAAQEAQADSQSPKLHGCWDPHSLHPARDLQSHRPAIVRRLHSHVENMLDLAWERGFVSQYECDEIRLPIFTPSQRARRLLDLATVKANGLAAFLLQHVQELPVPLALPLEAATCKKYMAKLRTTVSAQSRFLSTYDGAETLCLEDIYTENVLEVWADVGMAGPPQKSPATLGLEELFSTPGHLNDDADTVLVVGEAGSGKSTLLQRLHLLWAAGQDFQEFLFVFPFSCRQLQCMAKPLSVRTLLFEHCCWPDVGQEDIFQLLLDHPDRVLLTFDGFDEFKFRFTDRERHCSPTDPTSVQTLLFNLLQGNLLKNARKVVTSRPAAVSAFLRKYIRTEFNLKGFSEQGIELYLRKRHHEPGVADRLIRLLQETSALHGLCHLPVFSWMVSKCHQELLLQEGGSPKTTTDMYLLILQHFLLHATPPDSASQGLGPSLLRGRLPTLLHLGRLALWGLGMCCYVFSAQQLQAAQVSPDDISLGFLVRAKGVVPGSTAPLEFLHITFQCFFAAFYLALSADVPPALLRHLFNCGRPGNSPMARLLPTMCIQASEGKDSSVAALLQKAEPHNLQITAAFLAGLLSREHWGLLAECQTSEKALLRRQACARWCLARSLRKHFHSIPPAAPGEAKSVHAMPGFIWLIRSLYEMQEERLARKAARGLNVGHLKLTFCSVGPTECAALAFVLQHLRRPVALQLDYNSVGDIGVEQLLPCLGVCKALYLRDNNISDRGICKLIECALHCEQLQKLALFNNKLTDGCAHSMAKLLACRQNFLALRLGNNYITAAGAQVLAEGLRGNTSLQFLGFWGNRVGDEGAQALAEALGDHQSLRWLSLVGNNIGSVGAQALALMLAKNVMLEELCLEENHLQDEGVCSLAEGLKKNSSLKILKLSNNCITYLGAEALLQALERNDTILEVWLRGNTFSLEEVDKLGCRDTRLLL

[4] = biological target: T2, Heat shock factor protein 1 (Mus musculus, UniProt P38532); experiment: inhibition of MG132-induced HSE-luciferase signal, confirmation, cell-based, NIH3T3, luminescence, dose retest (AID 2382); format: functional;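 further: NIH3T3 fibroblasts with HSF1-driven luciferase reporter stressed by proteasome inhibitor MG132; luminescence from HSF1-driven luciferase expression after 8 hours of MG132 stress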
T2 sequence (P38532 whole entry): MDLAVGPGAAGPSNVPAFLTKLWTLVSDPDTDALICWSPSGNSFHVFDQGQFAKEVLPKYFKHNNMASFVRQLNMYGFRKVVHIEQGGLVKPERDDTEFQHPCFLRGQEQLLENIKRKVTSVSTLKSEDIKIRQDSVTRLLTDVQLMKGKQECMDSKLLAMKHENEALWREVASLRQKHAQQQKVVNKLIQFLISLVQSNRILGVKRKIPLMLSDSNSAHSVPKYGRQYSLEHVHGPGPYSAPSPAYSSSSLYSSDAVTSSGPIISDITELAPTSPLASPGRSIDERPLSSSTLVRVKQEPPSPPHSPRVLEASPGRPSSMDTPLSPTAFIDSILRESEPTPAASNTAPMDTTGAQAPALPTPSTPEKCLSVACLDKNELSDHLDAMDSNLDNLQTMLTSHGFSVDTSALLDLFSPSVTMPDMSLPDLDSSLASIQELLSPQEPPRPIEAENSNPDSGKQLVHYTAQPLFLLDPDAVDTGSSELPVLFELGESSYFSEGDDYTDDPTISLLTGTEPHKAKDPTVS

Paired box protein Pax-8 = Paired box protein Pax-8 (Homo sapiens, UniProt Q06710); experiment: inhibitors of PAX8-driven TPO luciferase reporter, dose response, RMG-I cells, cherry-pick (AID 687027); format: functional, cell-based;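 further: luciferase reporter driven by Pax8 target thyroperoxidase promoter measured by SteadyGlo luminescence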
Chain of Paired box protein Pax-8 (Q06710 whole entry): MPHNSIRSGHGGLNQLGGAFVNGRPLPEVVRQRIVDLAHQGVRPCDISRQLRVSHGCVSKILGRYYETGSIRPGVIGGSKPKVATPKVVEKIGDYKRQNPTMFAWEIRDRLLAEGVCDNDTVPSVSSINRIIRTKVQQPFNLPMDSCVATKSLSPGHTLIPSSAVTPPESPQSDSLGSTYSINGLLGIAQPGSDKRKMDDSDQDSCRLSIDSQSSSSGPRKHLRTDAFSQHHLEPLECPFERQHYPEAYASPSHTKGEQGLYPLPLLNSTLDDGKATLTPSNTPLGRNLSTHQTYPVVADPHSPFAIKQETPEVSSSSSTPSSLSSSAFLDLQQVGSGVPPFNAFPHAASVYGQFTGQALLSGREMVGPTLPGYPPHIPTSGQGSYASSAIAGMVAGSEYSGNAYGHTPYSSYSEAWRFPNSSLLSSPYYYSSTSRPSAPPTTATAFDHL

[5] = biological target: Luciferin 4-monooxygenase (Photinus pyralis, UniProt P08659); experiment: firefly luciferase enzyme inhibitors, dose response, biochemical, luminescence (AID 1891)
Chain of Luciferin 4-monooxygenase (P08659 whole entry): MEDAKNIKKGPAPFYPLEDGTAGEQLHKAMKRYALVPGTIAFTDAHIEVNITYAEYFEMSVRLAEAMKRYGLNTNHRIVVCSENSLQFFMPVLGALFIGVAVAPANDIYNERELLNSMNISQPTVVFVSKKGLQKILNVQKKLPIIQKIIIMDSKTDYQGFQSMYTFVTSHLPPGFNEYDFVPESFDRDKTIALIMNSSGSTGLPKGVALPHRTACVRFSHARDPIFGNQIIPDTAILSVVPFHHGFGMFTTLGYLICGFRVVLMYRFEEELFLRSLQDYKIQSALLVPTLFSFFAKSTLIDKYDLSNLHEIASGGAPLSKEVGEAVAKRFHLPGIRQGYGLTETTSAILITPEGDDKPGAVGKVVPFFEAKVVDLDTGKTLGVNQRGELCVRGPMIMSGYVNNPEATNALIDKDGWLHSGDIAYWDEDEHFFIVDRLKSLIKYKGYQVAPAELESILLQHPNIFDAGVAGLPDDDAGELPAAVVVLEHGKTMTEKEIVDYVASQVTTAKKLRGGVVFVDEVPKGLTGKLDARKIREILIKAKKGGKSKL

[6] = biological target: Eukaryotic translation initiation factor 4E (Mus musculus, UniProt P63073); experiment: eIF4E–eIF4G protein interaction inhibitors, dose response, biochemical, TR-FRET (AID 855); format: functional;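 further: potency for disrupting eIF4E binding to eIF4GI seen as loss of FRET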
Chain of Eukaryotic translation initiation factor 4E (P63073 whole entry): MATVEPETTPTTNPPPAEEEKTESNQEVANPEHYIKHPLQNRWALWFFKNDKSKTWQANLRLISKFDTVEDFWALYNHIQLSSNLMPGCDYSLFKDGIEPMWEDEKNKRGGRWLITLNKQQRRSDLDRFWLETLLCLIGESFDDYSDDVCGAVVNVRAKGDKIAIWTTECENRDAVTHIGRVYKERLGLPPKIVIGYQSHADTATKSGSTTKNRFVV

[7] = biological target: T3, Ubiquitin-conjugating enzyme E2 N (Homo sapiens, UniProt P61088); format: functional;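 further: Dose-response confirmation in a TR-FRET assay detecting UBC13-driven polyubiquitin chain formation, inhibition measured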
T3 sequence (P61088 whole entry): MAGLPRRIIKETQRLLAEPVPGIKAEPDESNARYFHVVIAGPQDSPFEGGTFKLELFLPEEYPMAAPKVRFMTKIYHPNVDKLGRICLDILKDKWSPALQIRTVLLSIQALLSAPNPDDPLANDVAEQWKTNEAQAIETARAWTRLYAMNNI

[8] = biological target: G-protein coupled receptor 55 (Homo sapiens, UniProt Q9Y2T6); experiment: GPR55 agonists via beta-arrestin recruitment, primary screen, imaging, U2OS cells, beta-arrestin-GFP redistribution (AID 1961); format: functional
Chain of G-protein coupled receptor 55 (Q9Y2T6 whole entry): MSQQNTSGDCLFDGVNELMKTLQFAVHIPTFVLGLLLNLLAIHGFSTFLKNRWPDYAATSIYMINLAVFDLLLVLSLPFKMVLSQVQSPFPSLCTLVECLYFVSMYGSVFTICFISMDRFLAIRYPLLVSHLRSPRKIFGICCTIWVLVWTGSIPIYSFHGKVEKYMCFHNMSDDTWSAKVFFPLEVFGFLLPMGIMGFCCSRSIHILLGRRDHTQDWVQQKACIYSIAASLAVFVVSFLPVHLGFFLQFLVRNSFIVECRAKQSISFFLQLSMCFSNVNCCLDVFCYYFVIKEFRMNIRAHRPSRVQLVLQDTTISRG

[9] = biological target: T4, Acyl-homoserine lactone acylase PvdQ (Pseudomonas aeruginosa (strain LESB58), UniProt Q9I194); experiment: P. aeruginosa PvdQ acylase inhibitors, dose response, biochemical, fluorescence, plate reader and imaging, cherry-picks (AID 493231)
T4 sequence (Q9I194 whole entry): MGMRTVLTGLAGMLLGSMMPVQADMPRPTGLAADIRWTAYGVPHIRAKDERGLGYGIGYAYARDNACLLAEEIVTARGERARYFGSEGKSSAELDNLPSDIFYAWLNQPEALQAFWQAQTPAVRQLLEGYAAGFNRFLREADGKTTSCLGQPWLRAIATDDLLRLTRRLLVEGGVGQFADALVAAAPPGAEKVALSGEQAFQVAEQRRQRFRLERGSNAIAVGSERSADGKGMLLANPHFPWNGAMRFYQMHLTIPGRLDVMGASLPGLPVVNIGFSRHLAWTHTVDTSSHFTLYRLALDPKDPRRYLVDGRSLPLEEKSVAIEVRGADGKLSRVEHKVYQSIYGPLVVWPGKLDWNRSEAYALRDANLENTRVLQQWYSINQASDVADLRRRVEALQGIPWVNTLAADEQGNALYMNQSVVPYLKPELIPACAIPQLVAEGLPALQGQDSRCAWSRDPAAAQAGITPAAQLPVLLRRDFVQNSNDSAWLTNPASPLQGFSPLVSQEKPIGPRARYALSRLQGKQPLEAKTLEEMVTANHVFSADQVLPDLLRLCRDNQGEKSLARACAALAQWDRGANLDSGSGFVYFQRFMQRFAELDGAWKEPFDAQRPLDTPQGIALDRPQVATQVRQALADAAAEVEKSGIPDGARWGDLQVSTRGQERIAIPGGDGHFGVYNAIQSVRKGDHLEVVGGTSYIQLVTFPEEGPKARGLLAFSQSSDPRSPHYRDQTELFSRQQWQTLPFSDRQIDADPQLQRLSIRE

[10] = cytotoxicity in HEK-293T cells, dose response, cytotoxicity control for BCR NF-kB inhibitor project, luminescence, B-cell screen hits (AID 489021); format: functional, cell-based;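 further: HEK-293T cells carrying an NF-kB luciferase reporter; cells exposed to compound for about 14 hours before viability readout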
HEK293 = experiment: cells; format: functional, cell-based; details: Homo sapiens
[11] = biological target: T5, Nuclear receptor subfamily 0 group B member 1 (Homo sapiens, UniProt P51843); experiment: Luminescence-based cell-based high throughput dose response assay for inhibitors of the orphan nuclear receptor subfamily 0, group B, member 1 (DAX1; NR0B1). [Related pubchem assays (depositor defined):AID504766, AID504790]; format: functional
T5 sequence (P51843 whole entry): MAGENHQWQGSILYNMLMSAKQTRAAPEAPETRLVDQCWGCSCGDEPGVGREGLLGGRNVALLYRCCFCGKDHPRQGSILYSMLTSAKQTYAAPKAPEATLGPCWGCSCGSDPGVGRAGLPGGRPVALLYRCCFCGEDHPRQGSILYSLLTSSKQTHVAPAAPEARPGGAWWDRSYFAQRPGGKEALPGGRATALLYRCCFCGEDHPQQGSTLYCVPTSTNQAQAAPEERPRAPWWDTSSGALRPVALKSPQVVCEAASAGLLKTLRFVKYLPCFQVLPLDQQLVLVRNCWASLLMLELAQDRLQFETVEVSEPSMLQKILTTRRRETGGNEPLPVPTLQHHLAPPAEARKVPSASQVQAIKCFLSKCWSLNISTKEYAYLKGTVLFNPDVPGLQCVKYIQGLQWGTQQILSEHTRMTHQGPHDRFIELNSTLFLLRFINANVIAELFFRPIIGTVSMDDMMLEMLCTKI

[12] = C. albicans growth with fluconazole, confirmation, fluorescence, retest (AID 2467); format: functional, cell-based
[13] = NIH-3T3 fibroblast cytotoxicity, dose response, cytotoxicity control, cell-based, fluorescence, Alamar Blue, secondary assay (AID 2327); format: functional;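 further: NIH-3T3 mouse fibroblasts cultured with fluconazole at 8 µg/mL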
[14] = test system: Streptococcus sp. 'group A'; experiment: growth inhibition of control SK(-) GAS strain, dose response, counter-screen for streptokinase expression inhibitor project, luminescence, kanamycin, BacTiterGlo, confirmation (AID 1900); format: functional, organism-based
[15] = inhibitors of SNCA 5'UTR-driven reporter translation, confirmation, H4 neuroglioma cells, luminescence (AID 1988); format: functional, cell-based
[16] = Luminescence Cell-Based Dose Response HTS to Identify Inhibitors of 5'UTR Stem-Loop Driven Prion Protein mRNA Translation in H4 Neuroglioblastoma Cells. [Related pubchem assays: 1827 (Project Summary), 1813 (Primary HTS)]; format: functional
Streptococcus = experiment: Group A Streptococcus viability loss, dose response, counter-screen for streptokinase expression inhibitor project, luminescence, BacTiterGlo (AID 1915); format: functional, organism-based;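 further: potency for reduction of bacterial viability or growth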
INS1 = experiment: beta cell apoptosis inhibitors, cytokine rescue, dose response, luminescence, retest (AID 449756); format: functional, cell-based; details: Rattus norvegicus;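 further: cell death triggered by IL-1 beta plus TNF-alpha plus IFN-gamma mixture; protective hits raise ATP signal compared with cytokine alone wells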
[17] = inhibitors of firefly luciferase expression or activity, dose response, H4 neuroglioma cells, luminescence (AID 1990); format: functional, cell-based
Streptokinase A = biological target: T6, Streptokinase A (Streptococcus pyogenes serotype M1, UniProt P10520); experiment: S. pyogenes streptokinase expression inhibitors, potency, dose response, plasminogen activation absorbance, OD405 (AID 1914); format: functional, Streptococcus pyogenes M1 GAS;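 further: secreted streptokinase activity via plasminogen activation per viability signal from cell pellet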
T6 sequence (P10520 whole entry): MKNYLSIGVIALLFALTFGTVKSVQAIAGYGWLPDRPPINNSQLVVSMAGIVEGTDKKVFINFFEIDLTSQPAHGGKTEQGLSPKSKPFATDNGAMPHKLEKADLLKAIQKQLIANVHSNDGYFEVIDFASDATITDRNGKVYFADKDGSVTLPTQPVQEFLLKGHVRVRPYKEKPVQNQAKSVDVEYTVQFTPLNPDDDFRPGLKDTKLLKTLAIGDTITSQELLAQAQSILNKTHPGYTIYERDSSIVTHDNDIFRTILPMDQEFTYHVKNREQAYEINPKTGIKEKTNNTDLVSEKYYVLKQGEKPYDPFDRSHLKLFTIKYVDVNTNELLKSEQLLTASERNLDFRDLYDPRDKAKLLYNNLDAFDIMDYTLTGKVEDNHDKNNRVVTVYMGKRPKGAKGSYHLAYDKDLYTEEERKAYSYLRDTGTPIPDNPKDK

Nonstructural protein 1 = Nonstructural protein 1 (Influenza A virus, UniProt Q194T2); format: functional, Influenza A virus (A/California/07/2009(H1N1))
Chain of Nonstructural protein 1 (Q194T2 whole entry): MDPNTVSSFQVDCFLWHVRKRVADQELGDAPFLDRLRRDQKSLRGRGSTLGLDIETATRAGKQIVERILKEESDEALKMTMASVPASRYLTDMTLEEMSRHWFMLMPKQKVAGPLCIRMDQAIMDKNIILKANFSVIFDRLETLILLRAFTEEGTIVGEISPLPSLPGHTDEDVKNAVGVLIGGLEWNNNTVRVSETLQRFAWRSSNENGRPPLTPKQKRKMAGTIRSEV

Compound: Cc1ccc(Nc2cc(C)nc3ccc(C)cc23)cc1
- EC50 [1]: 1.5 µM (active)
- CC50 [2]: 45.9 µM (active)

Compound: COc1ccc(N(Cc2cc3cc(OC)ccc3[nH]c2=O)S(=O)(=O)c2ccc(NC(C)=O)cc2)cc1
- EC50 [3]: > 20 µM (inactive)
- EC50 [4]: 0.309 µM (active)
- AC50 (Paired box protein Pax-8): 1.29 µM (active)
- EC50 [5]: > 112 µM (not active)

Compound: COc1cc(CNC2CCCC2)c(Br)cc1OC1CCCC1
- EC50 [1]: 0.0373 µM (active)

Compound: Cc1ccc(-c2csc(NC(=O)CSc3nc4ccccc4c(=O)n3CCCN(C)C)n2)cc1
- IC50 [6]: 50 µM (inactive)
- IC50 [7]: > 20 µM (inactive)

Compound: CCN(CC)C(=O)CC(c1ccc(N(C)C)cc1)c1c(OC)cc(OC)c2c(-c3ccccc3)cc(=O)oc12 (centres undefined)
- EC50 [8]: 2.74 µM (active)

Compound: CC(C)C[C@@H](CSc1ccccc1)N1CCN(CCc2ccccc2)CCC1=O
- EC50 [8]: 6.56 µM (active)

Compound: COc1ccccc1NS(=O)(=O)c1ccc(NN=C2CCCC2)c([N+](=O)[O-])c1
- IC50 [6]: > 64 µM (inactive)

Compound: N=c1sccn1CC(=O)Nc1ccccc1Oc1ccccc1
- EC50 [1]: 5.96 µM (active)

Compound: O=C1C2C3C=CC(C4CC34)C2C(=O)N1Cc1ccco1 (centres undefined)
- AC50 [9]: 12.4 µM (active)

Compound: O=C1C=C(c2cccc(Br)c2)C[C@@H](c2ccc(F)cc2)C1
- AC50 [9]: 48.9 µM (active)

Compound: Cn1c(=O)n(C)c2cc(C(=O)Nc3ccc4c(c3)OCO4)ccc21
- IC50 [10]: > 80 µM (inactive)
- IC50 (HEK293): > 67.5 µM (inactive)
- IC50 [11]: 4.57 µM (active)

Compound: N#Cc1cc(-c2ccccc2)cnc1Cl
- AC50 [9]: 6.29 µM (active)

Compound: O=C(O)CCc1nc(-c2ccc(Cl)cc2)no1
- AC50 [9]: 16.1 µM (active)

Compound: Cc1ccc2cc(CN(CCCN3CCOCC3)C(c3nnnn3Cc3ccco3)C(C)C)c(O)nc2c1C (centres undefined)
- EC50 [1]: 0.473 µM (active)

Compound: COc1cccc(/C=N/Nc2cc(N3CCOCC3)ncn2)c1O
- EC50 [12]: 5.78 µM (active)
- EC50 [13]: > 150 µM (inactive)
- EC50 [14]: 9.07 µM (active)
- EC50 [15]: 4.5 µM (active)
- EC50 [16]: 4.01 µM (active)
- EC50 (Streptococcus): 9.45 µM (active)
- AC50 (INS1): 3.04 µM (active)
- EC50 [17]: 8.79 µM (active)
- EC50 (Streptokinase A): > 150 µM (not active)
- IC50 (Nonstructural protein 1): 5.96 µM (active)

Compound: Sc1nnc(-c2ccco2)n1/N=C/c1ccc(Cl)cc1Cl
- IC50 [6]: > 64 µM (inactive)

Compound: Oc1c(Cl)cc(Cl)cc1/C=N/c1ccccc1N1CCCC1
- EC50 [8]: > 32 µM (inactive)
- CC50 [2]: 20.9 µM (active)

Reference: ChEMBL document CHEMBL1201862, “PubChem BioAssay data set” (2004)
